Experimental data: patent publication US5856503A, “Aminoalkyl-substituted benzo-heterocyclic compounds” (Hoffmann-La Roche Inc., priority 1995, dated 1999)
pIC50: −log10 of the molar value. In brackets after ≈: the same amount, converted by molar mass. Like-named read-outs stand apart in the source and are kept apart here.

Columns and labels:
[1] = molecular target: T1, human liver microsomal 2,3-oxidosqualene-lanosterol cyclase (OSC) (Homo sapiens, UniProt P48449); assay: Inhibition of human liver microsomal 2,3-oxidosqualene-lanosterol cyclase (OSC); format: biochemical; conditions: for inhibition at 0.1 µM: 100 nM test substance, 1 hour at 37° C., against controls; for pIC50: pH 7.4, 1 hour at 37° C., read-out: IC50 (OSC, conversion of MOS into lanosterol)
T1 construct: Liver microsomes from a healthy volunteer were prepared in sodium phosphate buffer (pH 7.4); from tissue; host or cells: liver microsomes from a healthy human volunteer
T1 sequence (P48449 1-732): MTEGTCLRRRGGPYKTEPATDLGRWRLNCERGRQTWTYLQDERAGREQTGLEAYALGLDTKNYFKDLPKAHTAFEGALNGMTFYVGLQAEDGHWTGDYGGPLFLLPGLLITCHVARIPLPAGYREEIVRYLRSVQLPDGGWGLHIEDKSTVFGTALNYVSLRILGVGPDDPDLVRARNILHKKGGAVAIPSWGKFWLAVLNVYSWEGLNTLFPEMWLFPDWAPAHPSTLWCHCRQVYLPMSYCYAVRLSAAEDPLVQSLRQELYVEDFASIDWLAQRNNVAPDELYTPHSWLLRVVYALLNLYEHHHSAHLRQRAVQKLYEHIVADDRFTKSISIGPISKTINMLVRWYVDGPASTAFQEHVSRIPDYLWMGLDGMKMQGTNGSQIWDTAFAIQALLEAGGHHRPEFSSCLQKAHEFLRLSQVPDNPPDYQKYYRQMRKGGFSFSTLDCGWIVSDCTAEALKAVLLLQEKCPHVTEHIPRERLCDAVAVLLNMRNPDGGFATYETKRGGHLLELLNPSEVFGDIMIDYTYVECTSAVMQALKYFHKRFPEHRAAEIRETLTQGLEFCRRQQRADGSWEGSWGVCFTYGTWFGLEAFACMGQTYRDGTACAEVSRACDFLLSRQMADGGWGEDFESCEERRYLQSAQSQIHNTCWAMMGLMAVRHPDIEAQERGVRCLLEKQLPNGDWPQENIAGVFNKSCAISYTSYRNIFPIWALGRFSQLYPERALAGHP
Description: Inhibition of human liver microsomal 2,3-oxidosqualene-lanosterol cyclase (OSC)
Liver microsomes from a healthy volunteer were prepared in sodium phosphate buffer (pH 7.4). The OSC activity was measured in the same buffer which also contained 1 mM EDTA and 1 mM dithiothreitol. The microsomes were diluted to 0.8 mg/ml protein in cold phosphate buffer. Dry [^14 C]R,S-monooxidosqualene (MOS; 12.8 μCi/mmol) was diluted to 20 nCi/μl with ethanol and mixed with phosphate buffer-1% BSA (Bovine Serum Albumin). A stock solution of 1 mM test substance in DMSO was diluted to the desired concentration with phosphate buffer-1% BSA. 40 μl of microsomes were mixed with 20 μl of the solution of the test substance and the reaction was subsequently started with 20 μl of the [^14 C]R,S-MOS solution. The final conditions were: 0.4 mg/ml of microsomal proteins and […] of [^14 C]R,S-MOS in phosphate buffer, pH 7.4, containing 0.5% albumin, DMSO <0.1% and ethanol <2%, in a total volume of 80 μl.
After 1 hour at 37° C. the reaction was stopped by the addition of 0.6 ml of 10% KOH-methanol, 0.7 ml of water and 0.1 ml of hexane:ether (1:1, v/v) which contained 25 μg of non-radioactive MOS and 25 μg of lanosterol as the carrier. After shaking 1 ml of hexane:ether (1:1, v/v) was added to each test tube, these were again shaken and then centrifuged. The upper phase was transferred into a glass test tube, the lower phase was again extracted with hexane:ether and combined with the first extract. The entire extract was evaporated to dryness with nitrogen, the residue was suspended in 50 μl of hexane:ether and applied to a silica gel plate. Chromatographic separation was effected in hexane:ether (1:1, v/v) as the eluent. […] After drying radioactive MOS and lanosterol were observed on the silica gel plate. The ratio of MOS to lanosterol was determined from the radioactive bands in order to determine the OSC inhibition.
The test was carried out on the one hand with a constant test substance concentration of 100 nM and the percentage OSC inhibition against controls was calculated. In addition, the test was carried out with different test substance concentrations and subsequently the IC50 value was calculated, i.e. the concentration required to reduce the conversion of MOS into lanosterol to 50% of the control value.

[2] = Cholesterol lowering in fat-fed hamsters; format: in vivo, Male golden hamsters; conditions: 200 μmol (about 70-120 mg/kg/day) in diet, 10 days
Description: Cholesterol lowering in fat-fed hamsters
Male golden hamsters kept individually were pre-treated for 7 days with a diet containing grated coconut (40 cal. % fat). The animals were then divided into groups each comprising 5 animals. During the treatment the animals were maintained on the same diet. Each test substance was firstly homogenized in 9 ml of water and subsequently mixed with the milled diet. The controls received only feed converted into a paste with water. The animals were treated for 10 days with a test substance dosage of 200 μmol (about 70-120 mg/kg/day). Blood samples (200 μl) were removed via the jugular vein under light anaesthesia on the last day of the pretreatment and one day after the last administration of test substance. The plasma cholesterol concentration was determined using a colorimetric enzyme method. The plasma lipoproteins were separated by exclusion chromatography (Hennes et al., Science Tools, 36, 1992, 10-12). The total cholesterol was determined in each fraction using a fluorometric enzyme method (Gamble et al., J. Lipid Res., 19, 1978, 1068-1071) in order to calculate the amount of cholesterol in the LDL and HDL fractions. The activity on plasma cholesterol and LDL and HDL cholesterol, expressed in percent of the control animals, for the products of Examples 8a and 12 is reproduced in the following Table: […]

Cryptococcus neoformans = assay: Antifungal activity in vitro, C. neoformans (microdilution); format: cell-based; conditions: 48 hours, 27° C., read-out: IC50 for C. neoformans after 48 hours (growth inhibition)
Description: (§1) Antifungal activity in vitro The compounds were tested for antifungal activity against Candida albicans, Cryptococcus neoformans and Aspergillus fumigatus using a microdilution method on microtitre plates (96 wells per plate). Yeast supplemented with 1% glucose and 0.25% di-potassium phosphate was used for the three fungal strains. The fungal cells were inoculated at 3×10^4 CFU (Colony Forming Unit) in […] of medium per well. The medium contained increasing concentrations of test substance. After incubation at 27° C. for 24 or 48 hours the turbidity in each well was measured by a microtitre plate reader. The growth inhibition was calculated in comparison to (without test substance). The IC50 value given in the following Table is the concentration of test substance at which the growth is inhibited by 50%.

Candida albicans = assay: Antifungal activity in vitro, C. albicans (microdilution); format: cell-based; conditions: 27° C.
Description: as §1

Aspergillus fumigatus = assay: Antifungal activity in vitro, A. fumigatus (microdilution); format: cell-based; conditions: 48 hours, 27° C., read-out: IC50 for A. fumigatus after 48 hours (growth inhibition)
Description: as §1

[3] = 24 hrs., read-out: IC50 for C. albicans after 24 hrs. (growth inhibition)
[4] = 48 hrs., read-out: IC50 for C. albicans after 48 hrs. (growth inhibition)

## C=CCN(C)CCCCCCOc1ccc2c(-c3ccc(Br)cc3)nsc2c1 [Example 1, allyl-[6-[3-(4-bromo-phenyl)-benzo[d]isothiazol-6-yloxy]-hexyl]-methyl-amine]
[1]
  inhibition at 0.1 µM: 96%
  pIC50: 8.48
[2]
  HDL cholesterol (plasma, percent of control animals): -27%
  LDL cholesterol (plasma, percent of control animals): -36%
  Total cholesterol (plasma, percent of control animals): -33%
Cryptococcus neoformans
  IC50: < 0.32 µg/mL
Candida albicans; [3]
  IC50: < 0.32 µg/mL
Candida albicans; [4]
  IC50: 3.6 µg/mL (≈ 7.84 µM)
Aspergillus fumigatus
  IC50: 3.9 µg/mL (≈ 8.49 µM)

## CN(CCCCCCOc1ccc2c(-c3ccc(Br)cc3)nccc2c1)C1CC1 [Example 24, [6-[1-(4-bromo-phenyl)-isoquinolin-6-yloxy]-hexyl]-cyclopropyl-methyl-amine]
[1]
  inhibition at 0.1 µM: 98%
  pIC50: 8.80
Cryptococcus neoformans
  IC50: < 0.32 µg/mL
Candida albicans; [3]
  IC50: < 0.32 µg/mL
Candida albicans; [4]
  IC50: 1.4 µg/mL (≈ 3.09 µM)
Aspergillus fumigatus
  IC50: 1.9 µg/mL (≈ 4.19 µM)
